Measurements as given in ChEMBL document CHEMBL1201862, “PubChem BioAssay data set” (2004).
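Cultured in 96-well plates, cells were exposed to test compound for 48 hours across five concentrations. The concentration for 50% growth inhibition is given as GI50.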 Calls of active or inactive are those of the source. No stated cut-off is given here; in the data, active = GI50 up to about 1.1 µM and inactive = higher.

What was measured:
Test in all cases: NCI anticancer screen, dose series, 48 h
[1] = tested on: OVCAR-3
[2] = tested on: MCF7
[3] = tested on: MDA-MB-435
[4] = tested on: OVCAR-5
[5] = tested on: CAKI-1
[6] = tested on: SN12C
[7] = tested on: A498
[8] = tested on: SK-MEL-2
[9] = tested on: SF-539
[10] = tested on: HL-60
[11] = tested on: OVCAR-4
[12] = tested on: SR
[13] = tested on: TK-10
[14] = tested on: T47D
[15] = tested on: MDA-N
[16] = tested on: SF-295
[17] = tested on: HOP-92
[18] = tested on: CCRF-CEM
[19] = tested on: SNB-75
[20] = tested on: RXF 393

Structure (SMILES) | GI50 [1] | GI50 [2] | GI50 [3] | GI50 [4] | GI50 [5] | GI50 [6] | GI50 [7] | GI50 [8] | GI50 [9] | GI50 [10] | GI50 [11] | GI50 [12] | GI50 [13] | GI50 [14] | GI50 [15] | GI50 [16] | GI50 [17] | GI50 [18] | GI50 [19] | GI50 [20]
NC1(P(=O)(O)O)CCCCC1 | > 100 µM (inactive) | > 100 µM (inactive) | > 100 µM (inactive) | > 100 µM (inactive) | > 100 µM (inactive) | > 100 µM (inactive) | > 100 µM (inactive) | > 100 µM (inactive) | > 100 µM (inactive) | < 0.01 µM (active) | > 100 µM (inactive) | > 100 µM (inactive) | > 100 µM (inactive) | > 100 µM (inactive) | > 100 µM (inactive) | > 100 µM (inactive) | > 100 µM (inactive) | > 100 µM (inactive) | > 100 µM (inactive) | > 100 µM (inactive)
COc1ccc(C2c3cc4c(cc3OC(NNC(N)=O)C2C)OCO4)cc1 (stereo not given) | 3.85 µM (inactive) | 4.21 µM (inactive) | 2.14 µM (inactive) | 26.6 µM (inactive) | 6.71 µM (inactive) | 7.16 µM (inactive) | 2.87 µM (inactive) | 10.8 µM (inactive) | 1.16 µM (inactive) | 2.2 µM (inactive) | 56.4 µM (inactive) | 1.9 µM (inactive) | 25.8 µM (inactive) | 27.4 µM (inactive) | 1.87 µM (inactive) | 3.58 µM (inactive) | 16.5 µM (inactive) | 2.95 µM (inactive) | 6.22 µM (inactive) | 6.92 µM (inactive)
O=C1c2ccccc2C(=O)c2c1ccc1conc21 | 0.296 µM (active) | 1.03 µM (active) | 0.605 µM (active) | 3 µM (inactive) | 4.22 µM (inactive) | 1.87 µM (inactive) | 11.9 µM (inactive) | 3.52 µM (inactive) | 1.95 µM (inactive) | 0.402 µM (active) | 0.7 µM (active) | 1.36 µM (inactive) | 6.44 µM (inactive) | 0.398 µM (active) | 0.392 µM (active) | 2.65 µM (inactive) | 1.07 µM (active) | 1.04 µM (active) | 7.59 µM (inactive) | 3.08 µM (inactive)
CCOC(=O)CC[C@H](N)C(=O)N[C@H](Cc1ccc(N(CCCl)CCCl)cc1)C(=O)OCC | 3.59 µM (inactive) | 1.21 µM (inactive) | 24.9 µM (inactive) | 5.06 µM (inactive) | 0.154 µM (active) | 1.79 µM (inactive) | 8.53 µM (inactive) | 12.3 µM (inactive) | 1.99 µM (inactive) | 4.16 µM (inactive) | 5.18 µM (inactive) | 0.09 µM (active) | 2.26 µM (inactive) | 0.239 µM (active) | 16.1 µM (inactive) | 3.21 µM (inactive) | 0.561 µM (active) | 1.96 µM (inactive) | 0.468 µM (active) | 0.879 µM (active)
CCOC(=O)C1(Cc2ccccc2)C=CN(C(=O)c2ccccc2)C=C1 | 41.3 µM (inactive) | 30.4 µM (inactive) | 29.2 µM (inactive) | > 100 µM (inactive) | 38.5 µM (inactive) | 29.6 µM (inactive) | 22.9 µM (inactive) | 18.1 µM (inactive) | 42.9 µM (inactive) | 16.6 µM (inactive) | 42.8 µM (inactive) | 22.4 µM (inactive) | 28.4 µM (inactive) | 16.1 µM (inactive) | 24.3 µM (inactive) | 36 µM (inactive) | 23.4 µM (inactive) | 20.9 µM (inactive) | 17.8 µM (inactive) | 27.5 µM (inactive)
CCCCCOC(=O)C(=O)Nc1[nH]nnc1C(N)=O | > 100 µM (inactive) | > 100 µM (inactive) | > 100 µM (inactive) | > 100 µM (inactive) | > 100 µM (inactive) | > 100 µM (inactive) | > 100 µM (inactive) | > 100 µM (inactive) | > 100 µM (inactive) | > 100 µM (inactive) | > 100 µM (inactive) | > 100 µM (inactive) | > 100 µM (inactive) | > 100 µM (inactive) | > 100 µM (inactive) | > 100 µM (inactive) | > 100 µM (inactive) | > 100 µM (inactive) | > 100 µM (inactive) | > 100 µM (inactive)
N=C(N)NS(=O)(=O)c1ccc(NC(=O)c2cccc3c(NNc4ccc(C(=O)O)cc4)c4ccccc4nc23)cc1 | 46.7 µM (inactive) | > 100 µM (inactive) | 95.7 µM (inactive) | > 100 µM (inactive) | > 100 µM (inactive) | > 100 µM (inactive) | 24.4 µM (inactive) | 22.9 µM (inactive) | 71.3 µM (inactive) | 32.6 µM (inactive) | > 100 µM (inactive) | 33.5 µM (inactive) | > 100 µM (inactive) | 39.6 µM (inactive) | > 100 µM (inactive) | > 100 µM (inactive) | 24.2 µM (inactive) | 25.8 µM (inactive) | > 100 µM (inactive) | > 100 µM (inactive)
O=S(=O)(CCCCl)SCCCCl | 31.1 µM (inactive) | 19.6 µM (inactive) | 25.8 µM (inactive) | > 64 µM (inactive) | > 57.1 µM (inactive) | 25.1 µM (inactive) | > 55.6 µM (inactive) | 44.8 µM (inactive) | 19.4 µM (inactive) | 9.91 µM (inactive) | 15.3 µM (inactive) | 10.4 µM (inactive) | 74.6 µM (inactive) | 26.9 µM (inactive) | 27 µM (inactive) | > 64.9 µM (inactive) | 25 µM (inactive) | 9.1 µM (inactive) | 33 µM (inactive) | 30.3 µM (inactive)
CCCCC(=O)NC1(c2cc3ccccc3s2)CCCCC1 | > 100 µM (inactive) | 85.9 µM (inactive) | > 100 µM (inactive) | > 100 µM (inactive) | > 100 µM (inactive) | > 100 µM (inactive) | > 100 µM (inactive) | > 100 µM (inactive) | 33.2 µM (inactive) | 4.89 µM (inactive) | > 100 µM (inactive) | > 100 µM (inactive) | > 100 µM (inactive) | > 100 µM (inactive) | > 100 µM (inactive) | > 100 µM (inactive) | > 100 µM (inactive) | 19.4 µM (inactive) | > 100 µM (inactive) | > 100 µM (inactive)
O=C1c2sccc2C(=O)c2c(CO)csc21 | 1.9 µM (inactive) | 5.12 µM (inactive) | 1.94 µM (inactive) | 21.2 µM (inactive) | 15.1 µM (inactive) | 6.46 µM (inactive) | 13.7 µM (inactive) | 2.85 µM (inactive) | 3.65 µM (inactive) | 1.29 µM (inactive) | 2.16 µM (inactive) | 3.42 µM (inactive) | 7.05 µM (inactive) | 4.71 µM (inactive) | 1.72 µM (inactive) | 2.69 µM (inactive) | 7.5 µM (inactive) | 3.37 µM (inactive) | 5.24 µM (inactive) | 1.39 µM (inactive)
CC1(C)OCC(C2OC(C)(C)OC2[C@H]2O[C@@]3(O)[C@H]4[C@H](C=CC[C@@H]42)[C@@H](OCc2ccccc2)[C@H](OCc2ccccc2)[C@H]3OCc2ccccc2)O1 (stereo not given in full) | 52.2 µM (inactive) | 15.2 µM (inactive) | 31.7 µM (inactive) | 54.3 µM (inactive) | 79.1 µM (inactive) | 41.2 µM (inactive) | > 100 µM (inactive) | 20.7 µM (inactive) | 27.2 µM (inactive) | 14.4 µM (inactive) | 41 µM (inactive) | 11 µM (inactive) | 32.4 µM (inactive) | 34.2 µM (inactive) | 17.9 µM (inactive) | > 100 µM (inactive) | 44.2 µM (inactive) | 8.63 µM (inactive) | 27.9 µM (inactive) | 16.5 µM (inactive)
COc1ccc(N2C(=O)CC(=O)N(C(=O)CCCCCCCCC(=O)N3C(=O)CC(=O)N(c4ccc(OC)cc4)C3=S)C2=S)cc1 | > 100 µM (inactive) | > 100 µM (inactive) | 61.1 µM (inactive) | > 100 µM (inactive) | > 100 µM (inactive) | > 100 µM (inactive) | > 100 µM (inactive) | > 100 µM (inactive) | > 100 µM (inactive) | 95.9 µM (inactive) | > 100 µM (inactive) | 39.4 µM (inactive) | > 100 µM (inactive) | 97.9 µM (inactive) | 57.4 µM (inactive) | > 100 µM (inactive) | > 100 µM (inactive) | 31.6 µM (inactive) | > 100 µM (inactive) | > 100 µM (inactive)
Cc1nn(-c2ccccc2)c2c1C(c1ccc(Cl)cc1)NC(=S)N2 (stereo not given) | 32.4 µM (inactive) | 28.4 µM (inactive) | 21.5 µM (inactive) | 27.5 µM (inactive) | 27.2 µM (inactive) | 19.1 µM (inactive) | 23.1 µM (inactive) | 17.5 µM (inactive) | 18.5 µM (inactive) | 31.9 µM (inactive) | 54.5 µM (inactive) | 36.6 µM (inactive) | 18.7 µM (inactive) | > 100 µM (inactive) | 29.4 µM (inactive) | 24.5 µM (inactive) | 7.18 µM (inactive) | 20.9 µM (inactive) | 48.5 µM (inactive) | 15.7 µM (inactive)
Cc1cc(/N=N/c2c(O)ccc3ccccc23)ccc1/N=N/c1cccc([N+](C)(C)C)c1 | 5.21 µM (inactive) | 7.1 µM (inactive) | 6.25 µM (inactive) | 17.7 µM (inactive) | 22.7 µM (inactive) | 7.11 µM (inactive) | 44.7 µM (inactive) | 7.83 µM (inactive) | 5.71 µM (inactive) | 2.38 µM (inactive) | > 27.1 µM (inactive) | 7.69 µM (inactive) | 29.5 µM (inactive) | 6.22 µM (inactive) | 12.9 µM (inactive) | 20.6 µM (inactive) | 15.6 µM (inactive) | 7.16 µM (inactive) | 4 µM (inactive) | 16.1 µM (inactive)
